Laboratory results from patent US20110206638A1, “COMPOSITIONS AND METHODS FOR REDUCING THE MUTATION RATE OF VIRUSES” (priority 2010, published 2011).

Assays:
[1] = tested on: subgenomic HCV replicon of genotype 1b (Con1S1179I), NS5A region; assay: NS5A sequencing of HCV RNA, nucleotide and amino acid substitution rates in Con1 replicon cells (Example 2); format: cell-based, Hepatitis C virus; details: for dn/ds / Ts/Tv / Percentage of sites showing positive selection / location of mutations in NS5A / Fold increase (Amino acid change per site) / Fold increase (Nt. change per site): 48 hrs; for dn/ds: SNAP, control 0.31; for Ts/Tv: control 3.3; for Percentage of sites showing positive selection: control 4.25%; for Amino acid change per site / Nt. change per site: Con1 replicon cells, once daily for 48 hrs, T7 baseline subtracted; for Nt. change per site: ethanol 0.5% v/v, BSO 20 μM, H2O2 100 μM, acetaldehyde 10 μM; for location of mutations in NS5A: SNAP plot against codons; for percentage of nucleotide substitutions A→C / percentage of nucleotide substitutions A→G / percentage of nucleotide substitutions A→U / percentage of nucleotide substitutions C→A / percentage of nucleotide substitutions C→G / percentage of nucleotide substitutions C→U / percentage of nucleotide substitutions G→A / percentage of nucleotide substitutions G→C / percentage of nucleotide substitutions G→U / percentage of nucleotide substitutions U→A / percentage of nucleotide substitutions U→C / percentage of nucleotide substitutions U→G: of all nt. substitutions in the group; for Fold increase (Amino acid change per site) / Fold increase (Nt. change per site): over control
Method: Huh7 cell clones (SgPC2 cells) supporting continuous replication of a subgenomic HCV replicon of genotype 1b (Con1S1179I sequence) were used (Choi J. et al. (2004) Hepatology 39:81-89; Blight K J et al. (2000) Science 290:1972). Subgenomic replicons support the HCV RNA genome replication by the viral replicase but no virus is formed. The in vitro transcription, transfection of the viral RNA, and Huh7 human hepatoma cell culture were performed as described (Choi J. et al. (2004) Hepatology 39:81-89; Blight K J et al. (2000) Science 290:1972). All biochemicals including ethanol (molecular biology grade), acetaldehyde, BSO, H2O2, dipyridal, and GSH ethyl ester were obtained from SigmaAldrich except PIH, which was synthesized according to published methods (Kicic A et al., (2001) Cancer 92: 3093-3110; Ponka P. et al., (1979) FEBS Lett 97: 317-321).
Total RNAs were collected using Trizol (Invitrogen). Then, the NS5A region (nt. 4612 to 6013 of Con1 replicon) was reverse transcribed/amplified with AccuScript High Fidelity RT-PCR System (Agilent). The reverse primer used for reverse transcription and PCR amplification was 5′-[…]-3′ (SEQ ID NO: 1), and the forward primer was 5′-[…]-3′ (SEQ ID NO: 2). The XbaI and HindIII restriction enzyme sites are underlined. The cDNA products were cloned into pUC19 via HindIII and XbaI sites and sequenced at the Joint Genome Institute (Livermore, Calif.) and University of California Berkeley Sequencing (Berkeley, Calif.). Sequences were aligned against Con1(S1179I) sequence, using BioEdit/MEGA 4.0 Molecular Evolutionary Genetics Analysis software. Cumulative synonymous and nonsynonymous mutations were computed using Synonymous Nonsynonomous Analysis Program (SNAP; www.hcv.lanl.gov). The […] ratio was calculated using SNAP. Amino acid substitution trends were analyzed by position with MutationCounter, a mutation counting program, developed for this project. The sequences were compared with 1,212 genotype 1b NS5A sequences pooled from the Lawrence Livermore HCV sequence database (www.hcv.lanl.gov) which included sequences from the European, Asian, and Russian databases. Sequences harboring gaps, undetermined nucleotides, or incomplete NS5A sequences were removed prior to the analysis.
To test whether ethanol can affect the HCV RNA sequence, Con1 replicon cells that support genotype 1b subgenomic HCV RNA replication were incubated with ethanol (0.5% v/v), BSO (20 μM), H2O2 (100 μM), or acetaldehyde (10 μM) once daily for 48 hrs with a change of the cell culture medium at the time of each treatment. Acetaldehyde and H2O2 are generated during hepatic metabolism of ethanol. BSO, by inhibiting GSH biosynthesis, mimics GSH depletion seen in hepatitis C patients. GSH participates in detoxification reactions that remove reactive species such as H2O2 and acetaldehyde. Thus, by decreasing GSH, BSO also amplifies the effects of endogenous ROS and RNS, allowing one to test the effects of endogenous ROS/RNS. Then, the RNA was collected, and the NS5A region corresponding to nt. 4612 to 6013 of Con1 replicon was reverse transcribed using AccuScript reverse transcriptase and amplified with PfuUltra (Agilent). PfuUltra is a high fidelity DNA polymerase with an error rate of 4.3×10^−9; AccuScript reverse transcriptase has an error rate of 1.61×10^−7. Then, the cDNA products were cloned into pUC19 and sequenced by the Sanger method.

Huh7 cells = format: cell-based, human
Method: Total RNA was isolated using Trizol (Invitrogen) and analyzed for 8-OH-guanosine (8-OH-G) by northwestern, as described (Shan X et al. (2003) J. Neurosci. 23:4913-4921). Briefly, RNA was size-fractionated by agarose gel electrophoresis, transferred to a nylon membrane, blocked with 1% BSA, incubated sequentially with monoclonal anti-8-OH-G/dG antibodies (QED Bioscience, Inc.) and then with goat anti-mouse HRP-conjugated secondary antibody (Santa Cruz Biotechnology), and signals were detected, using an ECL kit (Amersham). In addition, RNA was digested with nuclease P1 (Sigma, US Biological) and alkaline phosphatase (Promega) and analyzed for 8-OH-G content using RNA Damage Kit (Cell Biolabs, Inc.), following manufacturer's protocols.
GO continuously generates H2O2 extracellularly, in the presence of glucose and can be used to mimic inflammation and continued oxidative stress seen during chronic hepatitis C. […] An in vitro-oxidized control Huh7 RNA (incubated with H2O2+cytochrome C) was used as a positive control (FIG. 3A). […] NiCl2 was used as a positive control genotoxin in FIGS. 3B and 3C.

| Compound | dn/ds [1] | Ts/Tv [1] | Percentage of sites showing positive selection [1] | Amino acid change per site [1] | Nt. change per site [1] | location of mutations in NS5A [1] | percentage of nucleotide substitutions A→C [1] | percentage of nucleotide substitutions A→G [1] | percentage of nucleotide substitutions A→U [1] | percentage of nucleotide substitutions C→A [1] | percentage of nucleotide substitutions C→G [1] | percentage of nucleotide substitutions C→U [1] | percentage of nucleotide substitutions G→A [1] | percentage of nucleotide substitutions G→C [1] | percentage of nucleotide substitutions G→U [1] | percentage of nucleotide substitutions U→A [1] | percentage of nucleotide substitutions U→C [1] | percentage of nucleotide substitutions U→G [1] | Fold increase (Amino acid change per site) [1] | also measured |
| --- | --- | --- | --- | --- | --- | --- | --- | --- | --- | --- | --- | --- | --- | --- | --- | --- | --- | --- | --- | --- |
| CCO [Ethanol, ethanol] | 1.05 | 6.8 | 12.3% | 4.97 × 10^−3 amino acid change per site | 1.71 × 10^−3 nt. change per site | clustered in the C-terminal half of NS5A | 1.30 percentage | 25.97 percentage | 2.60 percentage | 0 percentage | 0 percentage | 18.18 percentage | 12.99 percentage | 6.49 percentage | 2.60 percentage | 0 percentage | 29.87 percentage | 0 percentage | 17.8 fold | Nt. change per site ([1]; listed as ethanol): 1.71×10^−3 nt. change per site; Amino acid change per site ([1]; listed as ethanol): 4.97×10^−3 amino acid change per site; Fold increase (Nt. change per site) [1]: 5.9 fold; Fold increase (Amino acid change per site) ([1]; listed as ethanol): ~18 fold; Fold increase (Nt. change per site) ([1]; listed as ethanol): about 6 fold; 8-OHG in Huh7 cells (Huh7 cells): elevated |
| CCCCS(=N)(=O)CCC(N)C(=O)O [BSO, L-buthionine-S,R-sulfoximine] | 0.72 | 3.3 | 12.3% | 3.24×10^−3 amino acid change per site | 1.20×10^−3 nt. change per site | clustered in the C-terminal half of NS5A | 1.28 percentage | 24.36 percentage | 2.56 percentage | 3.85 percentage | 5.13 percentage | 8.97 percentage | 16.67 percentage | 3.85 percentage | 3.85 percentage | 0 percentage | 29.49 percentage | 0 percentage | 11.6 fold | – |
